Columns and labels:
[1] = tested on: chloramphenicol acetyltransferase (CAT) reporter gene; assay: Level of CAT expression by ELISA after IAA induction in Erlenmeyer flask cultures; format: cell-based, E. coli; details: for CAT expression: relative to wild-type vector pTEXwt = 1
Description: The supernatant is marked “S”.
The results (mean±standard deviation) were obtained on two independent experiments. […]
The methods for determining the expression are those used in the examples above.

[2] = tested on: chloramphenicol acetyltransferase (CAT); details: IAA-induced extracts
Description: The resistant colonies are isolated and subcultured several times on the selection medium in order to confirm their resistance phenotype. The clones selected at this stage are then subjected to a series of analyses: (i) extraction of the plasmid (Qiagen kit, Hilden, Germany) and sequencing of the region covering the RBS, (ii) culturing in Erlenmeyer flasks with induction by IAA and then estimation of the level of CAT expression by ELISA assay, (iii) electrophoresis, by SDS-PAGE, of the total proteins extracted from the preceding cultures and staining with Coomassie Blue to visualize total intracellular proteins. The clones are sequenced using the Dye Terminator kit on an ABI 373A sequencer (Perkin Elmer Applied Biosystems, Foster City, Calif.). The cultures in Erlenmeyer flasks are prepared by seeding 25 ml of TSBY (30 g/l tryptic soy broth (DIFCO)+5 g/l yeast extract (Difco)) medium+8 mg/l tetracycline with a colony on a dish or with a bacterial suspension stored at −80° C. Each preculture is incubated on a platform shaken at 200 rpm, at 37° C. overnight. A fraction is transferred into 50 ml of the same medium so as to reach an initial optical density equal to 1. […] The total proteins contained in the I and S fractions are analyzed by electrophoresis under denaturing conditions (SDS-PAGE) and staining with Coomassie Blue.

TOP10 x pTEXCAT bacteria = assay: Chloramphenicol resistance of TOP10 x pTEXCAT bacteria on agar dishes, colony count and growth; format: cell-based, E. coli; design: key to qualitative criterion of colony growth: −: absence of growth; +++: maximum growth; details: for number of colonies counted: 18 h at 37° C., approximately 100 cells seeded
Experimental: The libraries are screened based on the hypothesis that the clones overexpressing the CAT enzyme will have increased resistance to chloramphenicol.
The numbers (upper row) indicate the number of colonies counted after incubation for 18 h at 37° C., each medium having been seeded with approximately 100 cells.
The index of the lower row is a qualitative criterion of colony growth (−=absence of growth to +++=maximum growth).
This implies that clones which overproduce CAT due to an optimized RBS region may either develop more rapidly than the wild-type population at a chloramphenicol concentration lower than the MIC (mininimum inhibitory concentration), or develop in the presence of chloramphenicol concentrations which are lethal for the wild-type population.

[3] = chloramphenicol 200 μg/ml, IAA = 0
[4] = chloramphenicol 200 μg/ml, IAA = 25 μg/ml
[5] = chloramphenicol 300 μg/ml, IAA = 25 μg/ml
[6] = chloramphenicol 600 μg/ml, IAA = 0
[7] = chloramphenicol 600 μg/ml, IAA = 25 μg/ml
[8] = chloramphenicol 700 μg/ml, IAA = 0
[9] = chloramphenicol 700 μg/ml, IAA = 25 μg/ml
[10] = chloramphenicol 800 μg/ml, IAA = 0
[11] = chloramphenicol 800 μg/ml, IAA = 25 μg/ml

pTEX12′: vector derived from pTEX9′, initiation codon directly upstream of the cloning site, SEQ ID No. 37 (DNA UGAGGAGAGUAAUCAUGGAAUUC)
CAT expression [1]: 155

pTEX9′: clone from the (R7N6) library, SEQ ID No. 31, deletion of region Ile4Asn8 (DNA UGAGGAGAGUAAUCAUGAAAGCAGCGGAAUUC; expressed or natural sequence)
CAT expression [1]: 249

pTEX11′: vector derived from pTEX9′ with additional deletion, SEQ ID No. 35 (DNA UGAGGAGAGUAAUCAUGAAAGAAUUC)
CAT expression [1]: 124

pTEXCAT: wild-type reference plasmid: pTEXmp18 (Ptrp promoter, TrpL leader) with the CAT reporter gene cloned at EcoRI/PstI; SEQ ID No. 19 (DNA AAGGGUAUCUAGAAUUAUGAAAGCAAUUUUCGUACUGAAUGCGGAAUUC)
CAT expression [1]: 1
Level of CAT expression ([1]; relative, level 1 arbitrarily assigned to pTEXCAT, mean±standard deviation of two independent experiments): 1
CAT band (28 kDa) on SDS-PAGE gel [2]: only a band of low intensity

O=C(N[C@H](CO)[C@H](O)c1ccc([N+](=O)[O-])cc1)C(Cl)Cl [Chloramphenicol, chloramphenicol]
qualitative criterion of colony growth (TOP10 x pTEXCAT bacteria; [3]): +++
number of colonies counted (TOP10 x pTEXCAT bacteria; [3]): 91
qualitative criterion of colony growth (TOP10 x pTEXCAT bacteria; [4]): +++
number of colonies counted (TOP10 x pTEXCAT bacteria; [4]): 65
number of colonies counted (TOP10 x pTEXCAT bacteria; chloramphenicol 300 μg/ml, IAA = 0): 74
qualitative criterion of colony growth (TOP10 x pTEXCAT bacteria; [5]): +++
number of colonies counted (TOP10 x pTEXCAT bacteria; [5]): 76
number of colonies counted (TOP10 x pTEXCAT bacteria; chloramphenicol 400 μg/ml, IAA = 0): 73
number of colonies counted (TOP10 x pTEXCAT bacteria; chloramphenicol 400 μg/ml, IAA = 25 μg/ml): 53
number of colonies counted (TOP10 x pTEXCAT bacteria; chloramphenicol 500 μg/ml, IAA = 0): 47
number of colonies counted (TOP10 x pTEXCAT bacteria; chloramphenicol 500 μg/ml, IAA = 25 μg/ml): 71
qualitative criterion of colony growth (TOP10 x pTEXCAT bacteria; [6]): −
number of colonies counted (TOP10 x pTEXCAT bacteria; [6]): 0
qualitative criterion of colony growth (TOP10 x pTEXCAT bacteria; [7]): −
number of colonies counted (TOP10 x pTEXCAT bacteria; [7]): 1
qualitative criterion of colony growth (TOP10 x pTEXCAT bacteria; [8]): −
number of colonies counted (TOP10 x pTEXCAT bacteria; [8]): 0
qualitative criterion of colony growth (TOP10 x pTEXCAT bacteria; [9]): −
number of colonies counted (TOP10 x pTEXCAT bacteria; [9]): 0
qualitative criterion of colony growth (TOP10 x pTEXCAT bacteria; [10]): −
number of colonies counted (TOP10 x pTEXCAT bacteria; [10]): 0
qualitative criterion of colony growth (TOP10 x pTEXCAT bacteria; [11]): −
number of colonies counted (TOP10 x pTEXCAT bacteria; [11]): 0

O=C(O)C=Cc1c[nH]c2ccccc12 [IAA, 3-β indole acrylic acid]
development of TOP10 x pTEXCAT bacteria in the presence of IAA versus its absence (TOP10 x pTEXCAT bacteria; between 300 and 600 μg/ml of chloramphenicol): more strongly

pTEX10′: vector derived from pTEX9′ with additional deletion, SEQ ID No. 33 (DNA UGAGGAGAGUAAUCAUGAAAGCAGAAUUC)
CAT expression [1]: 253

Source: patent US20040260060A1, “Constructs modified downstreams of the initiation codon for recombinant protein” (priority 2000, published 2004)
